Measurements: the supplement of paper PMC10627819

Key:
[1] = test system: S. aureus DSM 20231; test: fitness (endpoint OD595 vs no drug) (fraction); higher = more growth
Procedure, shortened: (§1)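 Cultures at OD595 0.01 were dispensed into 384-well plates in TSB, LB Lennox or CY and incubated at 37 °C. Every 30 min for 14 h, OD595 was read and corrected by the first reading. Fitness is the optical density at entry into stationary phase relative to the robust mean of no-drug control wells, capped at 1.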

[2] = test system: S. aureus Newman; test: as above
Procedure, shortened: as §1

[3] = test system: S. pneumoniae D39V; test: as above
Procedure, shortened: as §1

[4] = test system: B. subtilis 168; test: Bliss interaction score (quartile over a dose matrix) (fitness difference); higher = more antagonism (negative = synergy)
Procedure, shortened: (§2)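 Combination data were used to infer fitness under each single drug. Fitness is the OD595 at entry into stationary phase divided by the robust mean of the plate's no-drug wells, with a cap of 1. The Bliss score is the observed minus the expected product fitness, summarised by quartiles over technical, biological and donor/recipient replicates.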

[5] = test system: S. aureus DSM 20231; test: as above
Procedure, shortened: as §2

[6] = test system: S. aureus Newman; test: as above
Procedure, shortened: as §2

[7] = test system: S. pneumoniae D39V; test: as above
Procedure, shortened: as §2
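Throughout, for Bliss interaction score (quartile over a dose matrix): first quartile when negative (synergy) and third quartile when positive (antagonism).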

Cn1c2cccc(=O)c-2nc2ccccc21 [Pyocyanin] + CN[C@H](CC(C)C)C(=O)N[C@H]1C(=O)N[C@@H](CC(N)=O)C(=O)N[C@H]2C(=O)N[C@H]3C(=O)N[C@H](C(=O)N[C@H](C(=O)O)c4cc(O)cc(O)c4-c4cc3ccc4O)[C@H](O)c3ccc(c(Cl)c3)Oc3cc2cc(c3O[C@@H]2O[C@H](CO)[C@@H](O)[C@H](O)[C@H]2O[C@H]2C[C@](C)(N)[C@H](O)[C@H](C)O2)Oc2ccc(cc2Cl)[C@H]1O [Vancomycin]
Conditions	fitness
[1], first compound 1.25 µg/mL, partner 0.1875 µg/mL	0.796
[1], first compound 1.25 µg/mL, partner 0.375 µg/mL	0.856
[1], first compound 1.25 µg/mL, partner 0.75 µg/mL	0.921
[1], first compound 2.5 µg/mL, partner 0.1875 µg/mL	0.852
[1], first compound 2.5 µg/mL, partner 0.375 µg/mL	0.861
[1], first compound 2.5 µg/mL, partner 0.75 µg/mL	0.934
[1], first compound 5 µg/mL, partner 0.1875 µg/mL	0.659
[1], first compound 5 µg/mL, partner 0.375 µg/mL	0.745
[1], first compound 5 µg/mL, partner 0.75 µg/mL	0.726
[2], first compound 1.25 µg/mL, partner 0.1875 µg/mL	0.907
[2], first compound 1.25 µg/mL, partner 0.375 µg/mL	0.899
[2], first compound 1.25 µg/mL, partner 0.75 µg/mL	0.84
[2], first compound 2.5 µg/mL, partner 0.1875 µg/mL	0.855
[2], first compound 2.5 µg/mL, partner 0.375 µg/mL	0.768
[2], first compound 5 µg/mL, partner 0.75 µg/mL	0.393
[3], first compound 0.325 µg/mL, partner 0.03125 µg/mL	≥ 1
[3], first compound 0.325 µg/mL, partner 0.0625 µg/mL	0.994
[3], first compound 0.325 µg/mL, partner 0.125 µg/mL	0.921
[3], first compound 0.65 µg/mL, partner 0.03125 µg/mL	0.962
[3], first compound 0.65 µg/mL, partner 0.0625 µg/mL	0.952
[3], first compound 1.3 µg/mL, partner 0.03125 µg/mL	0.686
[3], first compound 1.3 µg/mL, partner 0.0625 µg/mL	0.651

fitness, [3], one replicate
Conditions	first compound 0.325 µg/mL	first compound 0.65 µg/mL
partner 0.25 µg/mL	0.584	0.724
partner 0.5 µg/mL	0.314	0.391

Conditions	Bliss interaction score
[4]	-0.0201
[5]	0.0758
[6]	0.0784
[7]	0.0635

Cc1cc(NS(=O)(=O)c2ccc(N)cc2)no1 [Sulfamethoxazol] + CCCCCCCCCC(=O)N[C@@H]1[C@H]([C@@H]([C@H](O[C@H]1OC2=C3C=C4C=C2OC5=C(C=C(C=C5)[C@H]([C@H]6C(=O)N[C@@H](C7=C(C(=CC(=C7)O)OC8[C@H]([C@H]([C@@H]([C@H](O8)CO)O)O)O)C9=C(C=CC(=C9)[C@H](C(=O)N6)NC(=O)[C@@H]4NC(=O)[C@@H]1C2=CC(=CC(=C2)OC2=C(C=CC(=C2)[C@H](C(=O)N[C@H](CC2=CC(=C(O3)C=C2)Cl)C(=O)N1)N)O)O)O)C(=O)O)O[C@H]1[C@@H]([C@H]([C@@H]([C@H](O1)CO)O)O)NC(=O)C)Cl)CO)O)O [Teicoplanin]
fitness, main component drawn
Conditions	first compound 1 µg/mL	first compound 2 µg/mL	first compound 4 µg/mL
[1], partner 0.1562 µg/mL	0.941	≥ 1	0.965
[1], partner 0.3125 µg/mL	≥ 1	≥ 1	0.991
[1], partner 0.625 µg/mL	≥ 1	≥ 1	≥ 1
[2], partner 0.1562 µg/mL	≥ 1	≥ 1	≥ 1
[2], partner 0.3125 µg/mL	≥ 1	0.995	0.984
[2], partner 0.625 µg/mL	≥ 1	≥ 1	0.862

fitness, [2], one replicate, main component drawn
Conditions	partner 0.1562 µg/mL	partner 0.3125 µg/mL	partner 0.62 µg/mL	partner 0.625 µg/mL	partner 1.24 µg/mL	partner 2.48 µg/mL
first compound 1 µg/mL	–	–	0.805	–	0.726	0.397
first compound 2 µg/mL	–	–	0.861	–	0.712	0.387
first compound 4 µg/mL	–	–	0.788	–	0.724	0.425
first compound 8 µg/mL	0.963	0.866	–	0.997	–	–

main component drawn
Conditions	Bliss interaction score
[4]	0.0811
[5]	0.0373
[6]	0.0326
[7]	-0.0733

Cc1onc(-c2ccccc2)c1C(=O)N[C@@H]1C(=O)N2[C@@H]1SC(C)(C)[C@@H]2C(=O)O [Oxacillin] + Cn1nnc(-c2ccc(-c3ccc(N4C[C@H](CO)OC4=O)cc3F)cn2)n1 [Tedizolid]
fitness
Conditions	partner 0.03125 µg/mL	partner 0.0625 µg/mL	partner 0.125 µg/mL	partner 0.25 µg/mL	partner 0.5 µg/mL
[1], first compound 0.0156 µg/mL	–	0.791	0.731	0.312	–
[1], first compound 0.0312 µg/mL	–	0.687	0.593	0.279	–
[1], first compound 0.0625 µg/mL	–	0.51	0.503	0.261	–
[2], first compound 0.0156 µg/mL	–	0.746	0.673	0.425	–
[2], first compound 0.0312 µg/mL	–	0.693	0.579	0.24	–
[2], first compound 0.0625 µg/mL	–	0.562	0.481	0.159	–
[3], first compound 0.01 µg/mL	0.974	0.931	0.851	0.683	0.336
[3], first compound 0.02 µg/mL	0.935	0.933	0.835	0.644	0.39
[3], first compound 0.04 µg/mL	–	0.728	0.614	0.468	0.157

Conditions	Bliss interaction score
[4]	-0.0469
[5]	0.0921
[6]	-0.0682
[7]	0.0979

CC[C@H]1OC(=O)[C@H](C)[C@@H](O[C@H]2C[C@@](C)(OC)[C@@H](O)[C@H](C)O2)[C@H](C)[C@@H](O[C@@H]2O[C@H](C)C[C@H](N(C)C)[C@H]2O)[C@](C)(O)C[C@@H](C)CN(C)[C@H](C)[C@@H](O)[C@]1(C)O [Azithromycin] + CN[C@H](CC(C)C)C(=O)N[C@H]1C(=O)N[C@@H](CC(N)=O)C(=O)N[C@H]2C(=O)N[C@H]3C(=O)N[C@H](C(=O)N[C@H](C(=O)O)c4cc(O)cc(O)c4-c4cc3ccc4O)[C@H](O)c3ccc(c(Cl)c3)Oc3cc2cc(c3O[C@@H]2O[C@H](CO)[C@@H](O)[C@H](O)[C@H]2O[C@H]2C[C@](C)(N)[C@H](O)[C@H](C)O2)Oc2ccc(cc2Cl)[C@H]1O [Vancomycin]
fitness
Conditions	partner 0.1875 µg/mL	partner 0.375 µg/mL	partner 0.75 µg/mL
[1], first compound 0.125 µg/mL	0.846	0.875	0.898
[1], first compound 0.25 µg/mL	0.819	0.874	0.829
[2], first compound 0.125 µg/mL	0.909	0.906	0.882
[2], first compound 0.25 µg/mL	0.855	0.893	0.862

Conditions	Bliss interaction score
[4]	-0.0288
[5]	0.0943
[6]	-0.104
[7]	-0.0427

CN(N=O)C(=O)N[C@@H](C=O)[C@@H](O)[C@H](O)[C@H](O)CO [Streptozotocin] + CN[C@H](CC(C)C)C(=O)N[C@H]1C(=O)N[C@@H](CC(N)=O)C(=O)N[C@H]2C(=O)N[C@H]3C(=O)N[C@H](C(=O)N[C@H](C(=O)O)c4cc(O)cc(O)c4-c4cc3ccc4O)[C@H](O)c3ccc(c(Cl)c3)Oc3cc2cc(c3O[C@@H]2O[C@H](CO)[C@@H](O)[C@H](O)[C@H]2O[C@H]2C[C@](C)(N)[C@H](O)[C@H](C)O2)Oc2ccc(cc2Cl)[C@H]1O [Vancomycin]
fitness
Conditions	first compound 0.15 µg/mL	first compound 0.3 µg/mL	first compound 0.6 µg/mL	first compound 1.2 µg/mL	first compound 2.4 µg/mL	first compound 4.8 µg/mL
[1], partner 0.1875 µg/mL	0.861	0.757	0.716	–	–	–
[1], partner 0.375 µg/mL	0.912	0.845	0.767	–	–	–
[1], partner 0.75 µg/mL	0.946	0.895	0.839	–	–	–
[2], partner 0.1875 µg/mL	0.861	0.792	0.585	–	–	–
[2], partner 0.375 µg/mL	0.82	0.758	0.515	–	–	–
[2], partner 0.75 µg/mL	0.885	0.763	0.539	–	–	–
[3], partner 0.03125 µg/mL	–	–	–	0.998	0.99	0.999
[3], partner 0.0625 µg/mL	–	–	–	0.911	0.881	0.932
[3], partner 0.125 µg/mL	–	–	–	0.746	0.757	0.794

fitness, [3], one replicate
Conditions	first compound 1.2 µg/mL	first compound 2.4 µg/mL	first compound 4.8 µg/mL
partner 0.25 µg/mL	0.655	0.639	0.536
partner 0.5 µg/mL	0.327	0.333	0.424

Conditions	Bliss interaction score
[4]	-0.0175
[5]	0.0534
[6]	-0.0371
[7]	0.0398

CC[C@H]1OC(=O)[C@H](C)[C@@H](O[C@H]2C[C@@](C)(OC)[C@@H](O)[C@H](C)O2)[C@H](C)[C@@H](O[C@@H]2O[C@H](C)C[C@H](N(C)C)[C@H]2O)[C@](C)(O)C[C@@H](C)CN(C)[C@H](C)[C@@H](O)[C@]1(C)O [Azithromycin] + CO/N=C(\C(=O)N[C@@H]1C(=O)N2C(C(=O)[O-])=C(C[N+]3(C)CCCC3)CS[C@H]12)c1csc(N)n1 [Cefepime]
fitness
Conditions	first compound 0.125 µg/mL	first compound 0.25 µg/mL	first compound 0.5 µg/mL
[1], partner 0.125 µg/mL	0.842	0.858	–
[1], partner 0.25 µg/mL	0.818	0.838	–
[1], partner 0.5 µg/mL	0.833	0.843	0.565
[2], partner 0.125 µg/mL	0.872	0.927	0.752
[2], partner 0.25 µg/mL	0.799	0.872	0.669
[2], partner 0.5 µg/mL	0.794	0.809	0.551

Conditions	Bliss interaction score
[4]	0.0866
[5]	0.103
[6]	0.0874
[7]	0.112

CN(N=O)C(=O)N[C@@H](C=O)[C@@H](O)[C@H](O)[C@H](O)CO [Streptozotocin] + CCCCCCCCCC(=O)N[C@@H]1[C@H]([C@@H]([C@H](O[C@H]1OC2=C3C=C4C=C2OC5=C(C=C(C=C5)[C@H]([C@H]6C(=O)N[C@@H](C7=C(C(=CC(=C7)O)OC8[C@H]([C@H]([C@@H]([C@H](O8)CO)O)O)O)C9=C(C=CC(=C9)[C@H](C(=O)N6)NC(=O)[C@@H]4NC(=O)[C@@H]1C2=CC(=CC(=C2)OC2=C(C=CC(=C2)[C@H](C(=O)N[C@H](CC2=CC(=C(O3)C=C2)Cl)C(=O)N1)N)O)O)O)C(=O)O)O[C@H]1[C@@H]([C@H]([C@@H]([C@H](O1)CO)O)O)NC(=O)C)Cl)CO)O)O [Teicoplanin]
fitness, main component drawn
Conditions	first compound 0.15 µg/mL	first compound 0.3 µg/mL	first compound 0.6 µg/mL
[1], partner 0.1562 µg/mL	0.801	0.799	0.66
[1], partner 0.3125 µg/mL	0.935	0.91	0.713
[1], partner 0.625 µg/mL	≥ 1	0.937	0.787
[2], partner 0.1562 µg/mL	0.874	0.724	0.493
[2], partner 0.3125 µg/mL	0.762	0.656	0.368
[2], partner 0.625 µg/mL	0.632	0.534	0.177

fitness, [2], one replicate, main component drawn
Conditions	first compound 0.15 µg/mL	first compound 0.3 µg/mL	first compound 0.6 µg/mL
partner 0.62 µg/mL	0.661	0.47	0.181
partner 1.24 µg/mL	0.578	0.259	0.0236
partner 2.48 µg/mL	0.363	0.0725	0.055

main component drawn
Conditions	Bliss interaction score
[4]	0.154
[5]	0.097
[6]	-0.166
[7]	-0.0829
